Reference: ChEMBL document CHEMBL6114946, “Development and characterization of pyridyl carboxamides as potent and highly selective Nav1.8 inhibitors” (Bioorg Med Chem Lett, 2025)
In brackets after ≈: the same amount, converted by molar mass. Activity calls are given as the source filed them. No cut-off for these calls is given here.

Tests used:
[1] = target: T1, Sodium channel protein type 10 subunit alpha (Homo sapiens, UniProt Q9Y5Y9); experiment: Inhibition of human Nav1.8 with resting membrane potential at half inactivated state by PatchXpress high-throughput electrophysiology method
Target sequence in this assay (Q9Y5Y9 whole entry): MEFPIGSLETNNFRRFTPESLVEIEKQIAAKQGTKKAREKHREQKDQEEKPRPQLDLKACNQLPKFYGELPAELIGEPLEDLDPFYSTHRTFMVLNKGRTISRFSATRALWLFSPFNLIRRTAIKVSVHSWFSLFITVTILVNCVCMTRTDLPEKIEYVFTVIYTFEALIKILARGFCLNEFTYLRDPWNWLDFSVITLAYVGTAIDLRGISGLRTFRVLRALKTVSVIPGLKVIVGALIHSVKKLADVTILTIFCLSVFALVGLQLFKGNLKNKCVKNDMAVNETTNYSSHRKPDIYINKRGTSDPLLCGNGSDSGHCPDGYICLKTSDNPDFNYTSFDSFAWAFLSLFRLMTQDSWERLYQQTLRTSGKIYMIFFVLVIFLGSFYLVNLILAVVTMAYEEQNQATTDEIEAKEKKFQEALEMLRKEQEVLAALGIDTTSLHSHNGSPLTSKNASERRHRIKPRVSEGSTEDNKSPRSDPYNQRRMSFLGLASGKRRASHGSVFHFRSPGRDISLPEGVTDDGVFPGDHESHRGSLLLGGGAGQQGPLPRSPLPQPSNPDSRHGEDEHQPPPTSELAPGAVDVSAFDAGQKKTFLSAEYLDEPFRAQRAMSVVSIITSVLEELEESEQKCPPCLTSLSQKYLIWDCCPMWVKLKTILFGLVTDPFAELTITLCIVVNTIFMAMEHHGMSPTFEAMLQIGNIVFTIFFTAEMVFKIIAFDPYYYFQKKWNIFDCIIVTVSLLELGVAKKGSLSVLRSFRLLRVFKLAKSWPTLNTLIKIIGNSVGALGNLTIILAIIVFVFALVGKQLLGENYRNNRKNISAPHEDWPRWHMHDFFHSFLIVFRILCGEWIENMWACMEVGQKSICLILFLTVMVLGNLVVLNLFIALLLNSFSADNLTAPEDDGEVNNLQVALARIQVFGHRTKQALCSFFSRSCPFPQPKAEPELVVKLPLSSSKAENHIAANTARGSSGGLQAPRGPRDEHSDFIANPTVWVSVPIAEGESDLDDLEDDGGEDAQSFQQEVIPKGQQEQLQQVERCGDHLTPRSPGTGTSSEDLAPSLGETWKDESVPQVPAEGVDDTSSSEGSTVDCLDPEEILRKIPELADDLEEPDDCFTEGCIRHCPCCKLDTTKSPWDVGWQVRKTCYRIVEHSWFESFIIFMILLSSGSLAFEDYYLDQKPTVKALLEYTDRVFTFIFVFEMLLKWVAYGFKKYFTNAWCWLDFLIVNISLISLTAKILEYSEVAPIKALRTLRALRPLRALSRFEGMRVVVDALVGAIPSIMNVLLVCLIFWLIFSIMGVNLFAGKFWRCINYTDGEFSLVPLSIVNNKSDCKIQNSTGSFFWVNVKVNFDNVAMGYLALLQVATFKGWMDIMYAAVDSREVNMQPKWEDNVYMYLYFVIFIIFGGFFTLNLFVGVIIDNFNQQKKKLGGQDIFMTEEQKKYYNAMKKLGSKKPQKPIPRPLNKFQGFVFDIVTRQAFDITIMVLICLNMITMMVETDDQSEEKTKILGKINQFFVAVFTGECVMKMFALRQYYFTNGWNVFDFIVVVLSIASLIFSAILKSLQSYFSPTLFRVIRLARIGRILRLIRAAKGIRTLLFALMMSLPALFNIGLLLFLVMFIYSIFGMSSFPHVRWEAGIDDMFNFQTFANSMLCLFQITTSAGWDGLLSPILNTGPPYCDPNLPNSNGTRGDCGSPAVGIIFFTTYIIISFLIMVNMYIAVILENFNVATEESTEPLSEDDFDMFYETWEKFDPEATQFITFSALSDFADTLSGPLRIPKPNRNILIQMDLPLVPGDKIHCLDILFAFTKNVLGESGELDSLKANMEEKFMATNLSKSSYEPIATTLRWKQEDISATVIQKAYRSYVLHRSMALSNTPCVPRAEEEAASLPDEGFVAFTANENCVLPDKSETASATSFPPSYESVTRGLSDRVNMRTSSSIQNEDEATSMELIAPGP

[2] = target: T1, Sodium channel protein type 10 subunit alpha; experiment: Inhibition of Nav1.8 (unknown origin) at 10 uM by Ionflux high-throughput automated patch method
Target sequence in this assay (Q9Y5Y9 whole entry, looked up): as the sequence (Q9Y5Y9 whole entry) above

[3] = Kinetic solubility of the compound in pH 7.4 phosphate buffered saline measured after 2 hrs by LC/MS analysis; assay type: physicochemical; settings: read-out: Kinetic_solubility
[4] = Clearance in rat at 1 mg/kg; assay type: ADME, organism-based; settings: in vivo
[5] = Oral bioavailability in rat at 10 mg/kg; assay type: ADME, organism-based; settings: in vivo
[6] = target: Sodium channel protein type 10 subunit alpha (Mus musculus, UniProt Q6QIY3); experiment: Inhibition of mouse Nav1.8 with resting membrane potential at half inactivated state by PatchXpress high-throughput electrophysiology method
[7] = target: Voltage-gated inwardly rectifying potassium channel KCNH2 (Homo sapiens, UniProt Q12809); experiment: Inhibition of human ERG; assay type: toxicity
[8] = Protein binding in human plasma assessed as unbound fraction; assay type: ADME, cell-free
[9] = Stability in human liver microsomes assessed as parent compound remaining measured after 60 mins; assay type: ADME, Microsome; settings: read-out: Stability
[10] = target: Cytochrome P450 3A4 (Homo sapiens, UniProt P08684); experiment: Inhibition of CYP3A4 (unknown origin); assay type: ADME
[11] = target: T2, Cytochrome P450 1A2 (Homo sapiens, UniProt P05177); experiment: Inhibition of CYP1A2 (unknown origin); assay type: ADME
T2 sequence (P05177 whole entry): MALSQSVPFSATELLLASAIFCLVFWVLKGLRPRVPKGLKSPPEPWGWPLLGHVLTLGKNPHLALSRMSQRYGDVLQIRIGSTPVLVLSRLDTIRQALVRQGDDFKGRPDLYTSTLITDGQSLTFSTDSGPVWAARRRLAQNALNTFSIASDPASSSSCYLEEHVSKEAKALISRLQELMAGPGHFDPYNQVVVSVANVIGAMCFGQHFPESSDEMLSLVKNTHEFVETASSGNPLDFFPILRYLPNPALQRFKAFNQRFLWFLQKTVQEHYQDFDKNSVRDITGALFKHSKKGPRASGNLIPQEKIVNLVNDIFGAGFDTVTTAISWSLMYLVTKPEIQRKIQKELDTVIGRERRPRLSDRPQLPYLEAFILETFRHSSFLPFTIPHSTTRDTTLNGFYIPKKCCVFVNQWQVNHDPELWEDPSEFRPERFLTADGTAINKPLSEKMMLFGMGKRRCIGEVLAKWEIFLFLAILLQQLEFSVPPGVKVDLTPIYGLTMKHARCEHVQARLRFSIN

[12] = Apparent permeability in MDCK-MDR1 cells; assay type: ADME, cell-based, Canis lupus familiaris; settings: dog
[13] = Efflux ratio of apparent permeability in MDCK-MDR1 cells; assay type: ADME, cell-based, Canis lupus familiaris; settings: dog
[14] = Clearance in dog at 1 mg/kg; assay type: ADME, organism-based, Canis lupus familiaris; settings: in vivo
[15] = Oral bioavailability in dog at 10 mg/kg; assay type: ADME, organism-based, Canis lupus familiaris; settings: in vivo
[16] = Volume of distribution at steady state in rat at 1 mg/kg, iv; assay type: ADME, organism-based; settings: in vivo, read-out: Vdss
[17] = Volume of distribution at steady state in dog at 1 mg/kg, iv; assay type: ADME, organism-based, Canis lupus familiaris; settings: in vivo, read-out: Vdss
[18] = target: Cytochrome P450 2C9 (Homo sapiens, UniProt P11712); experiment: Inhibition of CYP2C9 (unknown origin) at 2 to 8 uM; assay type: ADME; settings: dose 2-8 µM
[19] = Clearance in cynomolgus monkey at 1 mg/kg; assay type: ADME, organism-based, Macaca fascicularis; settings: in vivo
[20] = Oral bioavailability in cynomolgus monkey at 10 mg/kg; assay type: ADME, organism-based, Macaca fascicularis; settings: in vivo
[21] = Volume of distribution at steady state in cynomolgus monkey at 1 mg/kg, iv; assay type: ADME, organism-based, Macaca fascicularis; settings: in vivo, read-out: Vdss
[22] = Ratio of drug level in rat brain to plasma at 1 mg/kg, iv measured after 60 mins; assay type: ADME, organism-based; settings: read-out: BPR
[23] = target: Nav1.1 (sodium channel protein type 1 subunit alpha) (Homo sapiens, UniProt P35498); experiment: Inhibition of Nav1.1 (unknown origin) at 30 uM relative to control; assay type: toxicity
[24] = target: Nav1.2 (sodium channel protein type 2 subunit alpha) (Homo sapiens, UniProt Q99250); experiment: Inhibition of Nav1.2 (unknown origin) at 30 uM relative to control; assay type: toxicity
[25] = target: Nav1.3 (sodium channel protein type 3 subunit alpha) (Homo sapiens, UniProt Q9NY46); experiment: Inhibition of Nav1.3 (unknown origin) at 30 uM relative to control; assay type: toxicity
[26] = target: Nav1.4 (sodium channel protein type 4 subunit alpha) (Homo sapiens, UniProt P35499); experiment: Inhibition of Nav1.4 (unknown origin) at 30 uM relative to control; assay type: toxicity
[27] = target: Nav1.5 (sodium channel protein type 5 subunit alpha) (Homo sapiens, UniProt Q14524); experiment: Inhibition of Nav1.5 (unknown origin) at 30 uM relative to control; assay type: toxicity
[28] = target: Nav1.6 (sodium channel protein type 8 subunit alpha) (Homo sapiens, UniProt Q9UQD0); experiment: Inhibition of Nav1.6 (unknown origin) at 30 uM relative to control; assay type: toxicity
[29] = target: Nav1.7 (sodium channel protein type 9 subunit alpha) (Homo sapiens, UniProt Q15858); experiment: Inhibition of Nav1.7 (unknown origin) at 30 uM relative to control; assay type: toxicity
[30] = target: T1, Sodium channel protein type 10 subunit alpha; experiment: Inhibition of human Nav1.8 with resting membrane potential by PatchXpress high-throughput electrophysiology method
Target sequence in this assay (Q9Y5Y9 whole entry): as the sequence (Q9Y5Y9 whole entry) above

[31] = target: T1, Sodium channel protein type 10 subunit alpha; experiment: Inhibition of Nav1.8 (unknown origin) over expressed in HEK cells exposed to 1st depolarizing pulse at 10 Hz train of action potential at 35 nM; assay type: cell-based
Target sequence in this assay (Q9Y5Y9 whole entry, looked up): as the sequence (Q9Y5Y9 whole entry) above

[32] = target: T1, Sodium channel protein type 10 subunit alpha; experiment: Inhibition of Nav1.8 (unknown origin) over expressed in HEK cells exposed to 120th depolarizing pulse at 10 Hz train of action potential at 35 nM; assay type: cell-based
Target sequence in this assay (Q9Y5Y9 whole entry, looked up): as the sequence (Q9Y5Y9 whole entry) above

[33] = Inhibition of Nav1.8 (domain 1 and 2)-Nav 1.5 (domain 3 and 4) chimera (unknown origin) with resting membrane potential at half inactivated state by PatchXpress high-throughput electrophysiology method; parameters: species or system Homo sapiens
[34] = Inhibition of Nav1.5 (domain 1 and 2)-Nav 1.8 (domain 3 and 4) chimera (unknown origin) with resting membrane potential at half inactivated state by PatchXpress high-throughput electrophysiology method; parameters: species or system Homo sapiens

Sodium channel protein type 10 subunit alpha (Mus musculus, UniProt Q6QIY3), sequence (Q6QIY3 whole entry): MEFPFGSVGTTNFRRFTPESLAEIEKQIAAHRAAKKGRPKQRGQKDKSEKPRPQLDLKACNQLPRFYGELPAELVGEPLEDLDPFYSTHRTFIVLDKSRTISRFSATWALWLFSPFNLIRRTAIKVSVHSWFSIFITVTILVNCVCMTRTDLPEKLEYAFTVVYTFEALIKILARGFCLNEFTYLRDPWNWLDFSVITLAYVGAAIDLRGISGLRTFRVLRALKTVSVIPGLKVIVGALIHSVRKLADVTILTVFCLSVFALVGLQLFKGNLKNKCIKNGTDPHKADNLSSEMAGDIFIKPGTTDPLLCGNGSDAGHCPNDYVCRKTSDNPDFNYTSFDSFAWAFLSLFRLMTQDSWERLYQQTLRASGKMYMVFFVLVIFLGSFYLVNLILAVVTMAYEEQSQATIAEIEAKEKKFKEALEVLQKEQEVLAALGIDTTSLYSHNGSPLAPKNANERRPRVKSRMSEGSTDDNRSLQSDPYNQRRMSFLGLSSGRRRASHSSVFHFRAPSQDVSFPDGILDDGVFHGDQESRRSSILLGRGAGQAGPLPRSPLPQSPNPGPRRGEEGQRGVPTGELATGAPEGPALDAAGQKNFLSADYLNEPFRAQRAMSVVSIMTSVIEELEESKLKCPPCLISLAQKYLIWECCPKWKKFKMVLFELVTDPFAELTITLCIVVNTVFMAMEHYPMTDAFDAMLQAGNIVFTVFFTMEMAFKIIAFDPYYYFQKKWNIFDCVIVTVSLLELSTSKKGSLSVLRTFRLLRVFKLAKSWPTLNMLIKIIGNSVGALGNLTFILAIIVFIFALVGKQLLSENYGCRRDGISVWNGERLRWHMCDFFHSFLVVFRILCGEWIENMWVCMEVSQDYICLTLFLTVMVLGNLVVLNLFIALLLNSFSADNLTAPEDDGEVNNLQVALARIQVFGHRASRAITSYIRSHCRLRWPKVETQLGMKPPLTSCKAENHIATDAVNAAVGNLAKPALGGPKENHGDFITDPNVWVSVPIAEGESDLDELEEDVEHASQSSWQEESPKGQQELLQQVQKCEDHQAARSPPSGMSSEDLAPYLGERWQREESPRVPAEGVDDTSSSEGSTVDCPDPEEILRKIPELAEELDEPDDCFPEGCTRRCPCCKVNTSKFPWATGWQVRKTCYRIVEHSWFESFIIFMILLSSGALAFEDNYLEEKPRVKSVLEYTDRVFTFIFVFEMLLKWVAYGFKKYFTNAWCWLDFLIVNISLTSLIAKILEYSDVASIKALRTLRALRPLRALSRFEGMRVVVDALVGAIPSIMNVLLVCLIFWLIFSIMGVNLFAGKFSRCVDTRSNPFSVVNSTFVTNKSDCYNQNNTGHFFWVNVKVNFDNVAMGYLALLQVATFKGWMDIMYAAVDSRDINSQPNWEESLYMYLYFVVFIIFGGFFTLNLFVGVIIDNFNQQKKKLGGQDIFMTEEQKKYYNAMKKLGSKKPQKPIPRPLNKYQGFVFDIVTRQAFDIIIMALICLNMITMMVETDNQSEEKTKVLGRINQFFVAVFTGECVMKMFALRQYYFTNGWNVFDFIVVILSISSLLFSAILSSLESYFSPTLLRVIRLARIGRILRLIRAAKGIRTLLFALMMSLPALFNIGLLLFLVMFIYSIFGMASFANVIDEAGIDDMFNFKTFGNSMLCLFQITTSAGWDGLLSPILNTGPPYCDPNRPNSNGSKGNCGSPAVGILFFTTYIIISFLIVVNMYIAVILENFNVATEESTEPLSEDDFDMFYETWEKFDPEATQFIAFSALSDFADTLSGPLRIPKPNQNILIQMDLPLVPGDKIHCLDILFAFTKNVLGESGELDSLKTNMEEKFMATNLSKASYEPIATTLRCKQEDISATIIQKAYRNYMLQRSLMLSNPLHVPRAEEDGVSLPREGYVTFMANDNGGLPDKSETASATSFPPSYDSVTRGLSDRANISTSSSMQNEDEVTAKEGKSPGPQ
Cytochrome P450 3A4, sequence (P08684 whole entry): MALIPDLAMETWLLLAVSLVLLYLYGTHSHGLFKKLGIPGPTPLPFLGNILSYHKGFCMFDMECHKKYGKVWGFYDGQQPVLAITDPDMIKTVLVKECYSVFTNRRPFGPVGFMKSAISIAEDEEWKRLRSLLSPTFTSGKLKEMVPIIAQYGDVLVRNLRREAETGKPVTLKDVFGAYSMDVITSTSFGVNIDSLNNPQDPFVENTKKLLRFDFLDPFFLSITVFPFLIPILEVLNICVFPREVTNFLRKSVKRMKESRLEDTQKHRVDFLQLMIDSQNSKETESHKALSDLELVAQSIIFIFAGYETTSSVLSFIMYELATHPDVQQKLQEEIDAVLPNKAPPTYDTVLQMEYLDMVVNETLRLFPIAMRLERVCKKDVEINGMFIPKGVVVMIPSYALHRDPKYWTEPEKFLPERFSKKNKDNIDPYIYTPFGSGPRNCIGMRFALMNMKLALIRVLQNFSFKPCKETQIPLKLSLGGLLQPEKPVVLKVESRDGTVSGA
Cytochrome P450 2C9, sequence (P11712 whole entry): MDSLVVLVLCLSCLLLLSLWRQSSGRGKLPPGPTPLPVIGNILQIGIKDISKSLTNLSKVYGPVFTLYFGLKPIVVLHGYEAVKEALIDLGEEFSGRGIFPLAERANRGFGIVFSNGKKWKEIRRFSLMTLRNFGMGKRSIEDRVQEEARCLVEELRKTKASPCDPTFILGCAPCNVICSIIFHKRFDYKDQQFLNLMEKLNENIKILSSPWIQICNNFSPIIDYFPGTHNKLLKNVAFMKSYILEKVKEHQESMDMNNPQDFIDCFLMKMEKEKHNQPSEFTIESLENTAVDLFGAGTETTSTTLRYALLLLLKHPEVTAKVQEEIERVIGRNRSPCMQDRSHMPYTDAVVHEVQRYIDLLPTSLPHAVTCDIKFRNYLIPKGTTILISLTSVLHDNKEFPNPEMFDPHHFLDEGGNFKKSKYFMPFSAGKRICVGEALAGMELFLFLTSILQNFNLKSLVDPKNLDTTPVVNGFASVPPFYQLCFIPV

SMILES	IC50 [1] [nM]	inhibition [2]	solubility kinetic at 2 h [3] [µg/mL]	clearance [4] [mL/min/kg]	bioavailability [5] [%]	IC50 [6] [nM]	IC50 [7] [nM]	fraction unbound [8]	remaining at 1 h [9] [%]	INH [10] [µM]	INH [11] [µM]	Papp [12] [×10⁻⁶ cm/s]	efflux ratio [13]	clearance [14] [mL/min/kg]	bioavailability [15] [%]	Vd [16] [L/kg]	Vd [17] [L/kg]	other results
COc1cc(F)ccc1Oc1cc(C(F)(F)F)ncc1C(=O)Nc1ccnnc1	71	Active	95 (≈ 233 µM)	24	45	3100	> 30000	0.15	95	> 30	4	63	0.7	11	100	1	3.4	inhibition (INH) [18]: Moderate_effect
Cc1cc(F)ccc1Oc1ncc(C(F)(F)F)cc1C(=O)Nc1cccc([S@](C)(=N)=O)c1	35	Active	65 (≈ 139 µM)	6.1	80	3040	> 30000	0.14	> 95	> 30	> 30	18.1	0.8	1.7	39	1.8	1.2	clearance [19]: 7.7 mL/min/kg; bioavailability [20]: 61%; Vd [21]: 1.9 L/kg; Kp at 1 h [22]: 0.6; inhibition at 30 µM [23]: < 25%; inhibition at 30 µM [24]: < 25%; inhibition at 30 µM [25]: < 25%; inhibition at 30 µM [26]: < 25%; inhibition at 30 µM [27]: < 25%; inhibition at 30 µM [28]: < 25%; inhibition at 30 µM [29]: < 25%; IC50 [30]: 53 nM; inhibition [31]: 33.8%; inhibition [32]: 35.5%; IC50 [33]: 40 nM; IC50 [34]: > 30000 nM
